One assay has as its system S. mutans. Format: cell-based, Streptococcus mutans. The procedure:
(§1) 1.3 Determination of antimicrobial activity. The general antimicrobial activity of peptides against planktonic bacteria was determined by a MIC assay in TH broth (all oral streptococci) (Qi et al., 2005).
(§2) S. mutans, S. gordonii Challis (DL1), and S. sanguinis NY101 strains were grown in Todd Hewitt (TH, Fisher) broth medium at 37° C. under anaerobic conditions (80% N2, 10% CO2, and 10% H2). S. mutans strains UA159 (Ajdic et al., 2002), ATCC 25175, and T8 (Rogers, 1975), are wild-type clinical isolates, while comD is a knockout mutant that was constructed previously from the wild-type UA140 background (Qi et al., 2005). Luciferase expressing S. mutans strain JM11 was constructed from UA140 as described (Merritt et al., 2005). Exponentially growing bacterial cells were diluted to ˜1×10^5 cfu/mL in TH and placed into 96-well plates (Fisher). Peptides were then serially diluted and added to the bacteria.

In another assay the test system is S. sanguinis. Format: cell-based, S. sanguinis NY101. Here is the method: as §1, §2
The subject of a further assay is other oral streptococci. Nature of the assay: Binding of fluorescently labeled peptides to other oral streptococci. Conditions: fluorescently labeled peptide. The text has this: (§3) 1.2 Fluorescent labeling of peptides and fluorescence microscopy. Aliquots of CSPC16 (SEQ ID NO 2), CSP-fragment peptides (Table 2), and C16G2 (SEQ ID NO 4) were labeled with carboxyfluorescein (Sigma) as described previously (Eckert et al., 2006). After peptide cleavage but prior to the bacterial labeling assay, fluorescence intensity per μM peptide was checked fluorimetrically (λex=488 nm, λem=520 nm VersaFluor, BioRad) and found to be relatively similar (data not shown). To evaluate the level of peptide binding to bacteria, streptococci from an overnight culture (OD600 of 0.7-1.0) were washed with phosphate buffered saline (1×PBS), diluted 1:2 into 1×PBS, and exposed to peptide (16 μM) for 5 min at 25° C. After incubation with peptide, unbound agent was removed from the bacteria by three cycles of centrifugation (5 min, 16,000×g) and resuspension in 1×PBS. Labeling of oral streptococci was evaluated using brightfield and fluorescence microscopy (Nikon E400) at a 40× magnification. The digital images utilized for the semi-quantitative binding assessment were acquired with the factory-supplied software (SPOT, Diagnostics).

The next assay deals with S. gordonii biofilms. Put plainly: Single-species biofilm regrowth after peptide exposure, S. gordonii. The format is cell-based. Conditions: 25 μM peptide, 1 min exposure. The procedure:
(§4) 1.5 Examination of antimicrobial activity against single-species biofilms. To initiate biofilm formation, ˜1×10^7 bacteria per well (from overnight cultures) were seeded in TH medium (100 μL) to a 96-well flat-bottom plate. For all streptococci except S. mutans, the medium was supplemented with 0.5% (w/v) mannose and glucose. S. mutans UA159 biofilms were grown with 0.5% (w/v) sucrose. Plates were then centrifuged briefly to pellet the cells, and bacteria were incubated for 3-4 hours at 37° C. for biofilm formation. After incubation, the supernatant was carefully removed and biofilms were treated with 25 μM peptide in 1×PBS or 1×PBS alone for 1 min. The peptide solution was then removed and 100 μL TH was added to further dilute any remaining peptide. To minimize biofilm loss, cells were briefly centrifuged after TH addition, after which the supernatants were removed and fresh medium plus appropriate sugars were returned. Cells were then incubated anaerobically at 37° C. and biofilm growth was monitored over time by measuring absorbance at OD600 with a microplate spectrophotometer (Benchmark Plus, BioRad).

The test system of a further assay is S. sanguinis biofilms. Put plainly: Single-species biofilm regrowth after peptide exposure, S. sanguinis. Format: cell-based. Conditions: 25 μM peptide, 1 min exposure. Here is the method:
as §4

The test system of a further assay is S. gordonii. Format: cell-based, S. gordonii Challis (DL1). The procedure: as §1, §2
Another assay concerns S. mutans UA159. Put plainly: Time-kill (bactericidal kinetics), planktonic S. mutans. Format: cell-based, Streptococcus mutans. The following applies: 25 μM, 1 min exposure. Here is the method:
1.4 Determination of bactericidal kinetics. To determine the short term killing rate and selectivity of C16G2 and G2 we performed time-kill experiments, essentially as described previously (Eckert et al., 2006). S. mutans UA159, S. gordonii, or S. sanguinis were grown to log phase and diluted to ˜1×10^5 cfu/mL in growth medium. Under aerobic conditions, 25 μM G2 or C16G2 was added to the cell suspension and incubated at 25° C. At 1 min, 10 μL of cell suspension was removed, rescued by dilution into growth medium (1:50) and kept on ice. For plating, 20-500 μL of rescued cells were spread on growth medium agar plates and colonies were counted after overnight incubation at 37° C. under anaerobic conditions. We considered 60 cfu/mL as the detection limit for this assay. Values of surviving cfu/mL were expressed as the ratio of survivors from C16G2-treated cultures to cfu/mL from samples exposed to G2.

The test system of another assay is S. mutans UA159 and comD. Nature of the assay: Binding of fluorescently labeled peptides to S. mutans (fluorescence microscopy). Details: species or system Streptococcus mutans. The following applies: fluorescently labeled peptide.
Excerpt: To determine whether there was a region within the CSPC16 sequence that was responsible for S. mutans-specific binding, we synthesized a series of fluorescently labeled CSPC16 fragments, and analyzed their ability to bind to S. mutans. The following strategies were utilized in dissecting the CSPC16 sequence (Table 2): First, a series of fragments were constructed by generating deletions of 3 or 4 amino acids, from the N to C terminus, across the CSPC16 sequence (C16-1 to C16-5). Peptides lacking larger portions of the C or N termini of CSPC16 were also synthesized (C16-6 to C16-12). Additionally, peptides with Arg to […] (a positive to negative change in charge) (C16-4) or Phe to Gly substitutions (for a general decrease in hydrophobicity) (C16-3), as well as peptides representing a 4-residue Ala scan of the C16 sequence were constructed (C 16-15 to C16-18). […] These peptides include C16 (SEQ ID NO 1), C16-3 (SEQ ID NO 39), C16-4 (SEQ ID NO 40), C16-5 (SEQ ID NO 41), C16-6 (SEQ ID NO 42), C16-11 (SEQ ID NO 47), C16-12 (SEQ ID NO 5), C16-16 (SEQ ID NO 51), C16-17 (SEQ ID NO 52), and C16-18 (SEQ ID NO 53).
as §3

Another assay deals with S. mutans biofilms. Put plainly: Single-species biofilm regrowth after peptide exposure, S. mutans. Format: cell-based, Streptococcus mutans. The following applies: 25 μM peptide, 1 min exposure. The procedure:
as §4

Read-outs that look alike come from different tables or passages of the source. No end group written: not given here.

One may read the MIC as the least concentration at which growth counts as inhibited. Regarding “TFFRLFNRSFTQALGKGGGKNLRIIRKGIHIIKKY-NH2 [Peptide C16G2]”, the “increase in antimicrobial activity over the parental antimicrobial peptide G2” value with S. mutans (MIC, S. mutans strains) is 4-5 fold. Further, the MIC against S. mutans (S. mutans 25175) was found to be 3.8 ± 0.3 µM; against S. mutans (S. mutans T8), 3.7 ± 0.2 µM; against S. mutans (S. mutans UA159), 3.0 ± 1.6 µM; in the assay on S. mutans (S. mutans comD), 5.1 ± 2.4 µM; in the assay on S. sanguinis it was 19.1 ± 4.0 µM; against S. gordonii, 23.5 ± 7.8 µM. The “difference in susceptibility between G2 and C16G2” value with S. sanguinis (MIC, S. sanguinis) was no more than 2 fold; in the assay with S. gordonii (MIC, S. gordonii) it was no more than 2 fold. Besides, the “binding to other oral streptococci” value in the assay on other oral streptococci is “not to other oral streptococci”. For the same substance, the “biofilm re-growth after treatment (OD600)” value in the assay on S. gordonii biofilms is on record as “grew similarly to untreated biofilms”; in the assay on S. sanguinis biofilms, “grew similarly to untreated biofilms”; in the assay with S. mutans biofilms, “severely inhibited”. Further, the “activity in comparison to G2 (surviving cfu/mL)” value in the assay with S. mutans UA159 was “over 20 fold”. The “binding to S. mutans (in words)” value in the assay on S. mutans UA159 and comD is “could specifically bind to S. mutans”.

Source of the values: patent US8680058B2, “Selectively targeted antimicrobial peptides and the use thereof” (priority 2006, dated 2014).
